Experimental data published in PubChem BioAssay AID1963856 (Molecular Pharmacology Branch, DTP, NCI, 2024).

Tested on: LG0567-F671-PDC KRAS tumor spheroid viability
Assay: Anticancer human tumor LG0567-F671-PDC patient-derived lung adenocarcinoma cell line growth inhibition [KRAS2]
Conditions: spheroids with HUVEC and MSC; for viability, T/C: stronger effect = lower value
Description: Multicellular complex tumor spheroid response to RAS pathway inhibitors in combination with a targeted agents in patient-derived cell lines with oncogenic KRAS variants from multiple cancer types
A high-throughput screen of multi-cell type tumor spheroids was designed to identify active combinations of targeted small molecules and KRAS pathway inhibitors. Complex spheroids include a stromal component modeled by human endothelial cells (HUVEC) and fibroblasts modeled by human mesenchymal stem cells (MSCs). The concentration ranges selected for each drug and investigational agent were based upon clinically achievable concentrations if the clinical Cmax of the agent was known.
Compounds. The drugs and investigational agents: BI-3406 (NSC825286), BAY-293 (NSC824723), batoprotafib (TNO155; NSC825523), sotorasib (AMG 510; NSC818433), MRTX1257 (NSC819558), elimusertib (BAY 1895344; NSC800525), molibresib (GSK525762; NSC774829), temuterkib (LY3214996; NSC803410), venetoclax (NSC766270), alisertib (NSC759677), olaparib (NSC753686), talazoparib (NSC767125), erdafitinib (NSC781556), ipatasertib (NSC767898), cabozantinib (NSC761068), nintedanib (NSC756659), abemaciclib (NSC768073), docetaxel (NSC628503), trametinib (NSC758246), and sapanisertib (NSC764658) were obtained from the National Cancer Institute (NCI) Developmental Therapeutics Program Chemical Repository. The FDA-approved anticancer drug set is available from the Developmental Therapeutics Program. […] The stock solutions were prepared in dimethyl sulfoxide (DMSO, Sigma-Aldrich, St. Louis, MO, cat. D2650) at 800-fold the tested concentration and stored at -70 degrees C prior to their use. All drugs and investigational agents were tested over a range starting from a high concentration at or near the clinical Cmax and decreasing in half-log increments. If the clinical Cmax for an agent had not been determined, the highest concentration tested was 10 microM.
Cell Culture. All cells were maintained in an incubator at 37 degrees C and 5% CO2 with 95% humidity. The PDC lines were cultured according to standard operating procedures established by the NCI PDMR (https://pdmr.cancer.gov/sops/default.htm). Briefly, all PDCs were thawed and cultured in Matrigel-coated flasks prepared with a working solution of 1X Ham's F-12 nutrient mix, without supplementation (Invitrogen, Waltham, MA, cat. 11765054), 100 U/mL penicillin-streptomycin (Invitrogen, cat. 15140122), and 2.5% Matrigel (Corning Inc., Corning, NY, cat. 354248) for the first three passages. All PDCs were cultured in complete DMEM/F-12 media containing advanced DMEM/F-12 (Invitrogen, cat. 12634028), 4.9% defined fetal bovine serum, heat inactivated (HyClone Laboratories Inc., Logan, UT, cat. SH30070.03HI), 389 ng/mL hydrocortisone (Sigma-Aldrich, cat. H4001), 9.7 ng/mL human EGF recombinant protein (Invitrogen, cat. PHG0313), 23.4 microg/mL adenine (Sigma-Aldrich, cat. A2786), 97.3 U/mL penicillin-streptomycin (Invitrogen, cat. 15140122), 1.9 mM L-glutamine (Invitrogen, cat. 25030081), and 9.7 microM Y-27632 dihydrochloride (Tocris Bioscience, Bristol, United Kingdom, cat. 1254). The PDCs were cultured in complete DMEM/F12 media without 9.7 microM Y-27632 dihydrochloride for at least two passages prior to the screen. The established cell line HOP-62 was cultured in RPMI 1640 medium, HEPES (Invitrogen, cat. 22400105) with 10% defined fetal bovine serum (HyClone Laboratories Inc., cat. SH30070.03) and 2 mM L-glutamine (Invitrogen, cat. 25030081). The pooled donor HUVEC were cultured in endothelial cell growth medium 2 (PromoCell, Heidelberg, Germany, cat. C-22011) and the hMSC were cultured in mesenchymal stem cell growth medium 2 (PromoCell, cat. C-28009). For all experiments, HUVEC and hMSC were used at passages </=5, while the malignant cell lines were used at passages </=15. […]

[1] = curve of first compound, second compound 0.1 µM
[2] = curve of first compound, second compound 0.316 µM
[3] = curve of first compound, second compound 1 µM
[4] = curve of first compound, second compound 3.16 µM
[5] = curve of first compound, second compound 10 µM
[6] = second compound 0.1 µM, first compound 0.0316 µM
[7] = second compound 0.1 µM, first compound 0.1 µM
[8] = second compound 0.1 µM, first compound 0.316 µM
[9] = second compound 0.1 µM, first compound 1 µM
[10] = second compound 0.1 µM, first compound 3.16 µM
[11] = second compound 0.1 µM, first compound 10 µM
[12] = second compound 0.316 µM, first compound 0.0316 µM
[13] = second compound 0.316 µM, first compound 0.1 µM
[14] = second compound 0.316 µM, first compound 0.316 µM
[15] = second compound 0.316 µM, first compound 1 µM
[16] = second compound 0.316 µM, first compound 3.16 µM
[17] = second compound 0.316 µM, first compound 10 µM
[18] = second compound 1 µM, first compound 0.0316 µM
[19] = second compound 1 µM, first compound 0.1 µM
[20] = second compound 1 µM, first compound 0.316 µM
[21] = second compound 1 µM, first compound 1 µM
[22] = second compound 1 µM, first compound 3.16 µM
[23] = second compound 1 µM, first compound 10 µM
[24] = second compound 3.16 µM, first compound 0.0316 µM
[25] = second compound 3.16 µM, first compound 0.1 µM
[26] = second compound 3.16 µM, first compound 0.316 µM
[27] = second compound 3.16 µM, first compound 1 µM
[28] = second compound 3.16 µM, first compound 3.16 µM
[29] = second compound 3.16 µM, first compound 10 µM
[30] = second compound 10 µM, first compound 0.0316 µM
[31] = second compound 10 µM, first compound 0.1 µM
[32] = second compound 10 µM, first compound 0.316 µM
[33] = second compound 10 µM, first compound 1 µM
[34] = second compound 10 µM, first compound 3.16 µM
[35] = second compound 10 µM, first compound 10 µM
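Also: drug exposure lasted seven days after spheroids formed for three days.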
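For viability, T/C in this document: 100% = DMSO vehicle control viability.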

Row | Compound | IC50 [1] | IC50 [2] | IC50 [3] | IC50 [4] | IC50 [5] | viability, T/C [6] | viability, T/C [7] | viability, T/C [8] | viability, T/C [9] | viability, T/C [10] | viability, T/C [11] | viability, T/C [12] | viability, T/C [13] | viability, T/C [14] | viability, T/C [15] | viability, T/C [16] | viability, T/C [17] | viability, T/C [18] | viability, T/C [19] | viability, T/C [20] | other results
1 | CC(C)NCC(C(=O)N1CCN(c2ncnc3c2C(C)CC3O)CC1)c1ccc(Cl)cc1 (centres undefined) + CNCc1ccccc1-c1csc(C(C)Nc2nc(C)nc3cc(OC)c(OC)cc23)c1 | > 10000 nM | > 10000 nM | 675 nM | < 31.6 nM | < 31.6 nM | 78.9% | 72.3% | 53% | 62% | 70.9% | 61.6% | 68.2% | 54.6% | 46.7% | 54.5% | 59.1% | 54.6% | 60.4% | 63.5% | 52.3% | viability, T/C [21]: 42.8%; viability, T/C [22]: 48.3%; viability, T/C [23]: 42.2%; viability, T/C [24]: 0.25%; viability, T/C [25]: 0.18%; viability, T/C [26]: 0.11%; viability, T/C [27]: 1.4%; viability, T/C [28]: 0.12%; viability, T/C [29]: 0.97%; viability, T/C [30]: 0.84%; viability, T/C [31]: 0.44%; viability, T/C [32]: 0.13%; viability, T/C [33]: 0.12%; viability, T/C [34]: 2.26%; viability, T/C [35]: 0.6%
2 | CCN1CCN(Cc2ccc(Nc3ncc(F)c(-c4cc(F)c5nc(C)n(C(C)C)c5c4)n3)nc2)CC1 |  |  |  |  |  |  |  |  |  |  |  |  |  |  |  |  |  |  |  |  | viability, T/C (compound 0.00316 µM): 97.6% [middle of 5 runs]; viability, T/C (compound 0.01 µM): 93.7% [middle of 5 runs]; viability, T/C (compound 0.0316 µM): 76.9% [middle of 5 runs]; viability, T/C (compound 0.1 µM): 71% [middle of 5 runs]; viability, T/C (compound 0.316 µM): 70.9% [middle of 5 runs]; viability, T/C (compound 1 µM): 65.2% [middle of 5 runs]; IC50 (curve of compound): > 1000 nM
3 | COC(=O)c1ccc2c(C(=Nc3ccc(N(C)C(=O)CN4CCN(C)CC4)cc3)c3ccccc3)c(O)[nH]c2c1 + CC1OCC2(CCN(c3cnc(Sc4ccnc(N)c4Cl)c(N)n3)CC2)C1N | > 10000 nM | < 31.6 nM | < 31.6 nM | < 31.6 nM | < 31.6 nM | 55.5% | 50.5% | 47.3% | 57.5% | 57.8% | 51.8% | 29.1% | 29.2% | 26.4% | 39.5% | 36.3% | 37.3% | 25.5% | 23.4% | 23.6% | viability, T/C [21]: 30.6%; viability, T/C [22]: 38.2%; viability, T/C [23]: 34%; viability, T/C [24]: 19.5%; viability, T/C [25]: 20.1%; viability, T/C [26]: 19%; viability, T/C [27]: 24.1%; viability, T/C [28]: 32.5%; viability, T/C [29]: 27.8%; viability, T/C [30]: 13.7%; viability, T/C [31]: 13.9%; viability, T/C [32]: 13.2%; viability, T/C [33]: 19.5%; viability, T/C [34]: 23.6%; viability, T/C [35]: 26.7%
4 | O=C(c1cc(Cc2n[nH]c(=O)c3ccccc23)ccc1F)N1CCN(C(=O)C2CC2)CC1 |  |  |  |  |  |  |  |  |  |  |  |  |  |  |  |  |  |  |  |  | viability, T/C (compound 0.0316 µM): 103% [middle of 5 runs]; viability, T/C (compound 0.1 µM): 99.1% [middle of 5 runs]; viability, T/C (compound 0.316 µM): 98.6% [middle of 5 runs]; viability, T/C (compound 1 µM): 93.1% [middle of 5 runs]; viability, T/C (compound 3.16 µM): 93.5% [middle of 5 runs]; viability, T/C (compound 10 µM): 97.9% [middle of 5 runs]; IC50 (curve of compound): > 10000 nM
5 | COC(=O)c1ccc2c(C(=Nc3ccc(N(C)C(=O)CN4CCN(C)CC4)cc3)c3ccccc3)c(O)[nH]c2c1 + CNCc1ccccc1-c1csc(C(C)Nc2nc(C)nc3cc(OC)c(OC)cc23)c1 | > 10000 nM | < 31.6 nM | 426 nM | < 31.6 nM | < 31.6 nM | 66.3% | 57.4% | 57.2% | 59.2% | 65.4% | 56.4% | 50.6% | 45.5% | 39.7% | 53.6% | 29.4% | 41.7% | 52.5% | 48.5% | 52.8% | viability, T/C [21]: 46.9%; viability, T/C [22]: 2.38%; viability, T/C [23]: 3.49%; viability, T/C [24]: 1.05%; viability, T/C [25]: 2.43%; viability, T/C [26]: 0.68%; viability, T/C [27]: 0.71%; viability, T/C [28]: 0.64%; viability, T/C [29]: 0.52%; viability, T/C [30]: 1.55%; viability, T/C [31]: 1.48%; viability, T/C [32]: 2.71%; viability, T/C [33]: 2.27%; viability, T/C [34]: 0.69%; viability, T/C [35]: 0.4%
